Legend:
Assay in all cases: Greenhouse herbicidal activity, post-emergence treatment
Assay type in all cases: in vivo
[1] = tested on: Echinochloa crus-galli (ECHCG); settings: scale 0 to 100
Source text: (§1) The seeds of the test plants were sown separately for each species. For the post-emergence treatment, the test plants were first grown to a height of 3 to 15 cm, depending on the plant habit, and only then treated with the active ingredients which had been suspended or emulsified in water. For this purpose, the test plants were either sown directly and grown in the same containers, or they were first grown separately as seedlings and transplanted into the test containers a few days prior to treatment. Depending on the species, the plants were kept at 10-25° C. or 20-35° C. The test period extended over 2 to 4 weeks. During this time, the plants were tended, and their response to the individual treatments was evaluated. Evaluation was carried out using a scale from 0 to 100. 100 means no emergence of the plants, or complete destruction of at least the aerial moieties, and 0 means no damage, or normal course of growth. A good herbicidal activity is given at values of at least 70 and a very good herbicidal activity is given at values of at least 85. The plants used in the greenhouse experiments belonged to the following species: [table]

[2] = tested on: Alopecurus myosuroides (ALOMY); settings: scale 0 to 100
Source text: as §1

Galium aparine (GALAP) = settings: scale 0 to 100
Source text: as §1

[3] = tested on: Amaranthus retroflexus (AMARE); settings: scale 0 to 100
Source text: as §1

[4] = tested on: Chenopodium album (CHEAL); settings: for herbicidal activity against CHEAL: scale 0 to 100; for pest or weed control at 500 g/ha: application rate 0.5 kg/ha
Source text: as §1

Setaria faberi (SETFA) = settings: application rate 0.5 kg/ha, scale 0 to 100
Source text: as §1

Stellaria media (STEME) = settings: scale 0 to 100
Source text: as §1

[5] = tested on: Abutilon theophrasti (ABUTH); settings: application rate 0.25 kg/ha, scale 0 to 100
Source text: as §1

[6] = Chenopodium album, scale 0 to 100, read-out: herbicidal activity against CHEAL
[7] = Chenopodium album, application rate 0.25 kg/ha, scale 0 to 100, read-out: herbicidal activity against CHEAL

O=S1(=O)C(c2cc(F)ccc2C(F)(F)F)=C(O)c2ncccc2N1CC(F)F [Compound I-3]
herbicidal activity against ECHCG ([1]; application rate 0.5 kg/ha): very good herbicidal activity (a very good herbicidal activity is given at values of at least 85)

O=S1(=O)C(c2ccccc2Cl)=C(O)c2ncccc2N1CC(F)F [Compound I-5]
herbicidal activity against ECHCG ([1]; application rate 0.5 kg/ha): good herbicidal activity (A good herbicidal activity is given at values of at least 70)

O=S1(=O)C(c2cc(Cl)ccc2Cl)=C(O)c2ncccc2N1CC(F)F [Compound I-7]
herbicidal activity against ALOMY ([2]; application rate 0.5 kg/ha): very good herbicidal activity (a very good herbicidal activity is given at values of at least 85)
herbicidal activity against GALAP (Galium aparine (GALAP); application rate 0.5 kg/ha): good herbicidal activity (A good herbicidal activity is given at values of at least 70)

CC1=NOC(c2c(S(C)(=O)=O)ccc(C3=C(O)c4ncccc4N(CC(F)F)S3(=O)=O)c2C)C1 (stereo not shown) [Compound I-8]
herbicidal activity against AMARE ([3]; application rate 0.447 kg/ha): very good herbicidal activity (a very good herbicidal activity is given at values of at least 85)
herbicidal activity against CHEAL ([4]; application rate 0.447 kg/ha): very good herbicidal activity (a very good herbicidal activity is given at values of at least 85)

Cc1c(C2=C(O)c3ncccc3N(CC(F)F)S2(=O)=O)ccc2c1S(=O)(=O)CCC2(C)C [Compound I-10]
herbicidal activity against AMARE ([3]; application rate 0.041 kg/ha): very good herbicidal activity (a very good herbicidal activity is given at values of at least 85)
herbicidal activity against CHEAL ([4]; application rate 0.041 kg/ha): very good herbicidal activity (a very good herbicidal activity is given at values of at least 85)

CON=C1CCS(=O)(=O)c2c1ccc(C1=C(O)c3ncccc3N(CC(F)F)S1(=O)=O)c2C [Compound I-22]
herbicidal activity against SETFA (Setaria faberi (SETFA)): good herbicidal activity (A good herbicidal activity is given at values of at least 70)

CCOc1c(S(=O)(=O)CC)ccc(C2=C(O)c3ncccc3N(CC(C)C)S2(=O)=O)c1Cl [Compound I-29]
herbicidal activity against AMARE ([3]; application rate 0.154 kg/ha): very good herbicidal activity (a very good herbicidal activity is given at values of at least 85)

CCCCN1c2cccnc2C(O)=C(c2ccc(S(C)(=O)=O)c(OC)c2C)S1(=O)=O [Compound I-32]
pest or weed control at 400 g/ha ([4]; Chenopodium album, application rate 0.4 kg/ha, scale 0 to 100, read-out: herbicidal activity against CHEAL): ≥ 85%

COc1c(S(C)(=O)=O)ccc(C2=C(O)c3ncccc3N(CC(C)C)S2(=O)=O)c1C [Compound I-33]
herbicidal activity against CHEAL ([4]; application rate 0.345 kg/ha): very good herbicidal activity (a very good herbicidal activity is given at values of at least 85)
herbicidal activity against ECHCG ([1]; application rate 0.345 kg/ha): very good herbicidal activity (a very good herbicidal activity is given at values of at least 85)

CCN1c2cccnc2C(O)=C(c2cccc(OC(F)(F)F)c2Cl)S1(=O)=O [Compound I-34]
pest or weed control at 233 g/ha ([4]; Chenopodium album, application rate 0.233 kg/ha, scale 0 to 100, read-out: herbicidal activity against CHEAL): ≥ 85%
herbicidal activity against STEME (Stellaria media (STEME); application rate 0.233 kg/ha): very good herbicidal activity (a very good herbicidal activity is given at values of at least 85)

CN1c2cccnc2C(O)=C(c2ccc(Cl)cc2Cl)S1(=O)=O [Compound I-39]
pest or weed control at 500 g/ha [4, 6]: ≥ 85%

CCN1c2cccnc2C(O)=C(c2ccc(Cl)cc2Cl)S1(=O)=O [Compound I-40]
pest or weed control at 500 g/ha [4, 6]: ≥ 85%

CCCN1c2cccnc2C(O)=C(c2ccc(Cl)cc2Cl)S1(=O)=O [Compound I-41]
pest or weed control at 500 g/ha [4, 6]: ≥ 85%

CCCCN1c2cccnc2C(O)=C(c2ccc(Cl)cc2Cl)S1(=O)=O [Compound I-42]
pest or weed control at 500 g/ha [4, 6]: ≥ 85%

CN1c2cccnc2C(O)=C(c2ccccc2Cl)S1(=O)=O [Compound I-44]
pest or weed control at 100 g/ha ([4]; Chenopodium album, application rate 0.1 kg/ha, scale 0 to 100, read-out: herbicidal activity against CHEAL): ≥ 85%
herbicidal activity against ECHCG ([1]; application rate 0.1 kg/ha): very good herbicidal activity (a very good herbicidal activity is given at values of at least 85)

CN1c2cccnc2C(O)=C(c2ccccc2C(F)(F)F)S1(=O)=O [Compound I-45]
herbicidal activity against ABUTH [5]: very good herbicidal activity (a very good herbicidal activity is given at values of at least 85)

CC(C)N1c2cccnc2C(O)=C(c2ccccc2Cl)S1(=O)=O [Compound I-51]
pest or weed control at 500 g/ha [4, 6]: ≥ 85%

O=S1(=O)C(c2cc(Cl)cc(N3CCOCC3)c2C(F)(F)F)=C(O)c2ncccc2N1CC(F)F [Compound I-56, 3-[5-chloro-3-morpholino-2-(trifluoromethyl)phenyl]-1-(2,2-difluoroethyl)-2,2-dioxo-pyrido[3,2-c]thiazin-4-ol]
herbicidal activity against AMARE ([3]; application rate 0.25 kg/ha): good herbicidal activity (A good herbicidal activity is given at values of at least 70)

CCN1c2cccnc2C(O)=C(c2ccc(Cl)c(C)c2Cl)S1(=O)=O [Compound I-59]
pest or weed control at 154 g/ha ([4]; Chenopodium album, application rate 0.154 kg/ha, scale 0 to 100, read-out: herbicidal activity against CHEAL): ≥ 85%

O=S1(=O)C(c2ccc(F)cc2F)=C(O)c2ncccc2N1CC(F)F [Compound I-62]
herbicidal activity against CHEAL ([4]; application rate 0.0625 kg/ha): very good herbicidal activity (a very good herbicidal activity is given at values of at least 85)
herbicidal activity against GALAP (Galium aparine (GALAP); application rate 0.0625 kg/ha): good herbicidal activity (A good herbicidal activity is given at values of at least 70)

CCN1c2cccnc2C(O)=C(c2ccc(F)cc2F)S1(=O)=O [Compound I-63]
pest or weed control at 250 g/ha [4, 7]: ≥ 85%

CS(=O)(=O)c1ccc(C2=C(O)c3ncccc3N(CC(F)F)S2(=O)=O)c(Cl)c1C1=NOCC1 [Compound I-66]
herbicidal activity against AMARE ([3]; application rate 0.075 kg/ha): very good herbicidal activity (a very good herbicidal activity is given at values of at least 85)
herbicidal activity against CHEAL ([4]; application rate 0.075 kg/ha): very good herbicidal activity (a very good herbicidal activity is given at values of at least 85)
herbicidal activity against STEME (Stellaria media (STEME); application rate 0.075 kg/ha): very good herbicidal activity (a very good herbicidal activity is given at values of at least 85)

Cc1c(C2=C(O)c3ncccc3N(CC(F)F)S2(=O)=O)ccc2c1C(=O)C(C)(C)CS2(=O)=O [Compound I-71]
herbicidal activity against CHEAL ([4]; application rate 0.25 kg/ha): good herbicidal activity (A good herbicidal activity is given at values of at least 70)

CCN1c2cccnc2C(O)=C(c2ccc(Br)cc2Cl)S1(=O)=O [Compound I-81]
pest or weed control at 250 g/ha [4, 7]: ≥ 85%

COC(CN1c2cccnc2C(O)=C(c2ccccc2C(F)(F)F)S1(=O)=O)OC [Compound I-82]
herbicidal activity against ALOMY ([2]; application rate 0.25 kg/ha): very good herbicidal activity (a very good herbicidal activity is given at values of at least 85)

Source: patent US8440594B2, “Pyridothiazines having herbicidal action” (BASF SE, priority 2010, dated 2013)
